Patent US8445531B2, “Rodenticidal compounds, composition including same and use thereof for controlling harmful rodents” (priority 2010, dated 2013)

Key:
[1] = Liver residue follow-up (remanence) in rats; type: in vivo; details: rat liver
Procedure: (§1) 3 lots of 5 rats were used for the compound of formula (II), and 2 lots of 4 rats were used for bromadiolone.
(§2) 3 doses of 10 mg/kg of rat were administered intraperitoneally in succession at T0, T24h and T48h.
1 lot of rats was used to carry out a metering of residue of the compound of formula (II) in the liver at T72h, T96h and T120h.
(§3) Doses of 2 mg/kg/day were administered for 4 days.
A metering of bromadiolone residue in the liver at T120h was carried out.

[2] = system: rats; experiment: Mortality follow-up in rats after repeated administration; type: in vivo, rat
From the text: The rodenticidal effectiveness and the remanence of the compounds according to the invention have been tested in comparison with the rodenticidal product of reference bromadiolone, with bromadiolone being the least remanent of all of the second-generation anticoagulants currently used in combating rodents.
For this test, the compound of formula (II) that is obtained by implementing the process disclosed above is used.
as §1, §2
1 lot of rats was used to follow the mortality rate brought about by the 3 administrations of the compound of formula (II) according to the invention.
as §3
1 lot of rats was used to determine the mortality rate brought about at T120h.

[3] = system: rats; experiment: Coagulation time follow-up in rats; type: in vivo, rat
Procedure: as §1, §2
1 lot of rats was used to follow the coagulation time between 24 hours and 120 hours after the first injection. Actually, the coagulation time is the first parameter that varies and tends toward infinity under the action of an anticoagulant.
as §3
1 lot of rats was used to follow the coagulation time between 24 hours and 120 hours after the first injection.

[4] = 3 doses of 10 mg/kg intraperitoneally at T0, T24h, T48h, T24 h
[5] = 3 doses of 10 mg/kg intraperitoneally at T0, T24h, T48h, T48 h
[6] = 3 doses of 10 mg/kg intraperitoneally at T0, T24h, T48h, T72 h

SMILES: O=c1oc2ccccc2c(O)c1C(CC(O)c1ccc(-c2ccc(Br)cc2)cc1)c1ccccc1 (stereo not drawn) [Bromadiolone, bromadiolone]
- Liver Residue Follow-Up ([1]; 2 mg/kg/day for 4 days, T120 h): 4.2 µg/g
- liver residue of bromadiolone relative to compound of formula (II) ([1]; 120 hours after the first injection): 11 times
- Total Mortality ([2]; 2 mg/kg/day for 4 days, 2 mg/kg/day): 100%
- Mortality Follow-Up ([2]; 2 mg/kg/day for 4 days, T96 h): 2 Deaths
- Mortality Follow-Up ([2]; 2 mg/kg/day for 4 days, T120 h): 2 Deaths
- Total Mortality ([2]; 2 mg/kg/day for 4 days, listed as reference rodenticidal product, 2 mg/kg/day): 100%
- Coagulation Time Follow-Up ([3]; 2 mg/kg/day for 4 days, T0): Infinite
- Coagulation Time Follow-Up ([3]; 2 mg/kg/day for 4 days, T24 h): Infinite
- Coagulation Time Follow-Up ([3]; 2 mg/kg/day for 4 days, T48 h): Infinite
- Coagulation Time Follow-Up ([3]; 2 mg/kg/day for 4 days, T72 h): Infinite
- Coagulation Time Follow-Up ([3]; 2 mg/kg/day for 4 days, T96 h): Infinite
- Coagulation Time Follow-Up ([3]; 2 mg/kg/day for 4 days, T120 h, 2 mg/kg/day): Infinite
- Coagulation Time Follow-Up ([3]; 2 mg/kg/day for 4 days, T120 h, listed as bromadiolone, 2 mg/kg/day): infinite

SMILES: C/C(=C\Cc1c(O)c2ccccc2oc1=O)CCCC(C)CCCC(C)CCCC(C)C (stereo not drawn) [Compound According to the Invention, 3-phytyl-4-hydroxy-coumarin]
- concentration at 72 h ([1]; ip, 3 doses of 10 mg/kg intraperitoneally at T0, T24h, T48h, T72 h): 650 ng/g
- concentration at 96 h ([1]; ip, 3 doses of 10 mg/kg intraperitoneally at T0, T24h, T48h, T96 h): 510 ng/g
- concentration at 120 h ([1]; ip, 3 doses of 10 mg/kg intraperitoneally at T0, T24h, T48h, T120 h): 370 ng/g
- Total Mortality ([2]; 3 doses of 10 mg/kg intraperitoneally at T0, T24h, T48h, 10 mg/kg): 100%
- Mortality Follow-Up [2, 4]: 2 Deaths
- Mortality Follow-Up [2, 5]: 2 Deaths
- Mortality Follow-Up [2, 6]: 1 Death
- Total Mortality ([2]; 3 doses of 10 mg/kg intraperitoneally at T0, T24h, T48h, listed as compounds according to the invention, 10 mg/kg): 100%
- Coagulation Time Follow-Up ([3]; 3 doses of 10 mg/kg intraperitoneally at T0, T24h, T48h, T0): Infinite
- Coagulation Time Follow-Up [3, 4]: Infinite
- Coagulation Time Follow-Up [3, 5]: Infinite
- Coagulation Time Follow-Up [3, 6]: Infinite
- Coagulation Time Follow-Up ([3]; 3 doses of 10 mg/kg intraperitoneally at T0, T24h, T48h, T96 h): Infinite
- Coagulation Time Follow-Up ([3]; 3 doses of 10 mg/kg intraperitoneally at T0, T24h, T48h, T120 h): 120 s
